pIC50: −log10 of the molar value.
Target: T1, CD73 (Homo sapiens, UniProt P21589)
T1 sequence (P21589 27-549): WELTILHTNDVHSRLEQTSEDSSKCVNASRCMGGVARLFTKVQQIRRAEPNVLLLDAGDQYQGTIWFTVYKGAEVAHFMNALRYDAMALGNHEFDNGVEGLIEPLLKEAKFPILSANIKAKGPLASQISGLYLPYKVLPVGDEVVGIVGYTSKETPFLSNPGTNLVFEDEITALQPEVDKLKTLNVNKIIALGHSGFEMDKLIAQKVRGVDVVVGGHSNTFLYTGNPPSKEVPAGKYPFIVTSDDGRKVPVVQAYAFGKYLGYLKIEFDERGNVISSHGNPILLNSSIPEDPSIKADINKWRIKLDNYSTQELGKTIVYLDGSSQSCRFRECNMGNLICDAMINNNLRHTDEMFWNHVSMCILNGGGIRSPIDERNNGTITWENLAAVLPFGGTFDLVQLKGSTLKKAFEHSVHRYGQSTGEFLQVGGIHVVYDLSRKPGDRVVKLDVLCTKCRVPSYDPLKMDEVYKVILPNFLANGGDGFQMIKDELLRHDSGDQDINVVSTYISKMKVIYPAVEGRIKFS
Assay: CD73 inhibition (Potency: CD73 IC50)
Assay type: biochemical

| Structure (SMILES) | pIC50 |
| --- | --- |
| COC(=O)OCOP(=O)(CC(=O)N(C)C[C@H]1O[C@@H](n2cnc3c(NC4CCCC4)nc(Cl)nc32)[C@H](O)[C@@H]1O)OCOC(=O)OC [AA] | < 6.00 |
| COC(=O)OCOP(=O)(O)CC(=O)N(C)C[C@H]1O[C@@H](n2cnc3c(NC4CCCC4)nc(Cl)nc32)[C@H](O)[C@@H]1O [AB] | < 6.00 |
| CN(C[C@H]1O[C@@H](n2cnc3c(NC4CCCC4)nc(Cl)nc32)[C@H](O)[C@@H]1O)C(=O)CP(=O)(OCOC(=O)OCC(C)(C)C)OCOC(=O)OCC(C)(C)C [AC] | < 6.00 |
| CN(C[C@H]1O[C@@H](n2cnc3c(NC4CCCC4)nc(Cl)nc32)[C@H](O)[C@@H]1O)C(=O)CP(=O)(O)OCOC(=O)OCC(C)(C)C [AD] | < 6.00 |
| COCCOC(=O)OCOP(=O)(CC(=O)N(C)C[C@H]1O[C@@H](n2cnc3c(NC4CCCC4)nc(Cl)nc32)[C@H](O)[C@@H]1O)OCOC(=O)OCCOC [AE] | < 6.00 |
| COCCOC(=O)OCOP(=O)(O)CC(=O)N(C)C[C@H]1O[C@@H](n2cnc3c(NC4CCCC4)nc(Cl)nc32)[C@H](O)[C@@H]1O [AF] | < 6.00 |
| CN(C[C@H]1O[C@@H](n2cnc3c(NC4CCCC4)nc(Cl)nc32)[C@H](O)[C@@H]1O)C(=O)CP(=O)(OCOC(=O)C(C)(C)C)OCOC(=O)C(C)(C)C [AG] | < 6.00 |
| CN(C[C@H]1O[C@@H](n2cnc3c(NC4CCCC4)nc(Cl)nc32)[C@H](O)[C@@H]1O)C(=O)CP(=O)(O)OCOC(=O)C(C)(C)C [AH] | < 6.00 |
| O=C(CP(=O)(O)O)N(CC1CC1)C[C@H]1O[C@@H](n2cnc3c(NC4CCCC4)nc(Cl)nc32)[C@H](O)[C@@H]1O [AI] | > 7.00 |
| CC(C)OC(=O)OCOP(=O)(CC(=O)N(CC1CC1)C[C@H]1O[C@@H](n2cnc3c(NC4CCCC4)nc(Cl)nc32)[C@H](O)[C@@H]1O)OCOC(=O)OC(C)C [AJ] | < 6.00 |
| CC(C)OC(=O)OCOP(=O)(O)CC(=O)N(CC1CC1)C[C@H]1O[C@@H](n2cnc3c(NC4CCCC4)nc(Cl)nc32)[C@H](O)[C@@H]1O [AK] | < 6.00 |
| CN(C[C@H]1O[C@@H](n2cnc3c(N[C@H]4CCOC4)nc(Cl)nc32)[C@H](O)[C@@H]1O)C(=O)CP(=O)(O)O [AL] | 6.00 to 7.00 |
| CC(C)OC(=O)OCOP(=O)(CC(=O)N(C)C[C@H]1O[C@@H](n2cnc3c(N[C@H]4CCOC4)nc(Cl)nc32)[C@H](O)[C@@H]1O)OCOC(=O)OC(C)C [AM] | < 6.00 |
| CC(C)OC(=O)OCOP(=O)(O)CC(=O)N(C)C[C@H]1O[C@@H](n2cnc3c(N[C@H]4CCOC4)nc(Cl)nc32)[C@H](O)[C@@H]1O [AN] | < 6.00 |
| COCCOC(=O)OCOP(=O)(CC(=O)N(C)C[C@H]1O[C@@H](n2cnc3c(N[C@H]4CCOC4)nc(Cl)nc32)[C@H](O)[C@@H]1O)OCOC(=O)OCCOC [AO] | < 6.00 |
| CCOC(=O)OCOP(=O)(CC(=O)N(C)C[C@H]1O[C@@H](n2cnc3c(N[C@H]4CCOC4)nc(Cl)nc32)[C@H](O)[C@@H]1O)OCOC(=O)OCC [AP] | < 6.00 |
| CCOC(=O)OCOP(=O)(O)CC(=O)N(C)C[C@H]1O[C@@H](n2cnc3c(N[C@H]4CCOC4)nc(Cl)nc32)[C@H](O)[C@@H]1O [AQ] | < 6.00 |
| CC(C)OC(=O)[C@H](C)NP(=O)(CC(=O)N(C)C[C@H]1O[C@@H](n2cnc3c(NC4CCCC4)nc(Cl)nc32)[C@H](O)[C@@H]1O)Oc1ccccc1 (stereo partly drawn) [M] | < 6.00 |
| COC(=O)[C@H](C)NP(=O)(CC(=O)N(C)C[C@H]1O[C@@H](n2cnc3c(NC4CCCC4)nc(Cl)nc32)[C@H](O)[C@@H]1O)Oc1ccccc1 (stereo partly drawn) [N] | < 6.00 |
| CC(C)OC(=O)[C@H](C)NP(=O)(CC(=O)N(C)C[C@H]1O[C@@H](n2cnc3c(NC4CCCC4)nc(Cl)nc32)[C@H](O)[C@@H]1OC(=O)C(C)C)Oc1ccccc1 (stereo partly drawn) [O] | < 6.00 |
| CN(C[C@H]1O[C@@H](n2cnc3c(NC4CCCC4)nc(Cl)nc32)[C@H](O)[C@@H]1O)C(=O)CP1(=O)OCc2ccccc2O1 (stereo partly drawn) [T] | < 6.00 |
| CN(C[C@H]1O[C@@H](n2cnc3c(NC4CCCC4)nc(Cl)nc32)[C@H](O)[C@@H]1O)C(=O)CP(=O)(Oc1ccccc1)Oc1ccccc1 [U] | < 6.00 |
| CN(C[C@H]1O[C@@H](n2cnc3c(NC4CCCC4)nc(Cl)nc32)[C@H](O)[C@@H]1O)C(=O)CP(=O)(O)Oc1ccccc1 [V] | < 6.00 |

Results, then the compound that gave them:

| pIC50 | Structure (SMILES) |
| --- | --- |
| < 6.00 | CN(C[C@H]1O[C@@H](n2cnc3c(N[C@H]4CCOC4)nc(Cl)nc32)[C@H](O)[C@@H]1O)C(=O)CP(=O)(OCOC(=O)OCC(C)(C)C)OCOC(=O)OCC(C)(C)C [AR] |
| < 6.00 | CN(C[C@H]1O[C@@H](n2cnc3c(N[C@H]4CCOC4)nc(Cl)nc32)[C@H](O)[C@@H]1O)C(=O)CP(=O)(O)OCOC(=O)OCC(C)(C)C [AS] |
| 6.00 to 7.00 | O=C(CP(=O)(O)O)NC[C@H]1O[C@@H](n2cnc3c(NC4CCCC4)nc(Cl)nc32)[C@H](O)[C@@H]1O [A] |
| 6.00 to 7.00 | CC(C)N(C[C@H]1O[C@@H](n2cnc3c(NC4CCCC4)nc(Cl)nc32)[C@H](O)[C@@H]1O)C(=O)CP(=O)(O)O [B] |
| > 7.00 | CCN(C[C@H]1O[C@@H](n2cnc3c(NC4CCCC4)nc(Cl)nc32)[C@H](O)[C@@H]1O)C(=O)CP(=O)(O)O [C] |
| > 7.00 | O=C(CP(=O)(O)O)N(Cc1ccccc1)C[C@H]1O[C@@H](n2cnc3c(NC4CCCC4)nc(Cl)nc32)[C@H](O)[C@@H]1O [D] |
| > 7.00 | O=C(O)CN(C[C@H]1O[C@@H](n2cnc3c(NC4CCCC4)nc(Cl)nc32)[C@H](O)[C@@H]1O)C(=O)CP(=O)(O)O [E] |
| < 6.00 | CC(C)OC(=O)[C@H](C)NP(=O)(CC(=O)N(C)C[C@H]1O[C@@H](n2cnc3c(NC4CCCC4)nc(Cl)nc32)[C@H](O)[C@@H]1O)N[C@@H](C)C(=O)OC(C)C [Example P] |
| > 7.00 | O=C(CP(=O)(O)O)N(CCO)C[C@H]1O[C@@H](n2cnc3c(NC4CCCC4)nc(Cl)nc32)[C@H](O)[C@@H]1O [F] |
| < 6.00 | CN(C[C@H]1O[C@@H](n2cnc3c(NC4CCCC4)nc(Cl)nc32)[C@@H](F)[C@@H]1O)C(=O)CP(=O)(O)O [G] |
| > 7.00 | CCN(C[C@H]1O[C@@H](n2cnc3c(N(C)C4CCCC4)nc(Cl)nc32)[C@H](O)[C@@H]1O)C(=O)CP(=O)(O)O [H] |
| > 7.00 | CN(c1nc(Cl)nc2c1ncn2[C@@H]1O[C@H](CN(CC2CC2)C(=O)CP(=O)(O)O)[C@@H](O)[C@H]1O)C1CCCC1 [I] |
| 6.00 to 7.00 | CN(C[C@H]1O[C@@H](n2ncc3c(NC4CCCC4)nc(Cl)nc32)[C@H](O)[C@@H]1O)C(=O)CP(=O)(O)O [J] |
| > 7.00 | O=C(CP(=O)(O)O)N(CC1CC1)C[C@H]1O[C@@H](n2ncc3c(NC4CCCC4)nc(Cl)nc32)[C@H](O)[C@@H]1O [K] |
| > 7.00 | CN(C[C@H]1O[C@@H](n2cnc3c(NC4CCCC4)nc(Cl)nc32)[C@H](O)[C@@H]1O)C(=O)CP(=O)(O)O [L] |
| < 6.00 | CN(C[C@H]1O[C@@H](n2cnc3c(NC4CCCC4)nc(Cl)nc32)[C@H](O)[C@@H]1O)C(=O)CP1(=O)OCCC(c2cccc(Cl)c2)O1 (stereo partly drawn) [Q] |
| < 6.00 | CN(C[C@H]1O[C@@H](n2cnc3c(NC4CCCC4)nc(Cl)nc32)[C@H](O)[C@@H]1O)C(=O)CP1(=O)Nc2ccccc2CO1 (stereo partly drawn) [R] |
| < 6.00 | Cc1cccc2c1NP(=O)(CC(=O)N(C)C[C@H]1O[C@@H](n3cnc4c(NC5CCCC5)nc(Cl)nc43)[C@H](O)[C@@H]1O)OC2 (stereo partly drawn) [S] |
| < 6.00 | CC(C)OC(=O)OCOP(=O)(CC(=O)N(C)C[C@H]1O[C@@H](n2cnc3c(NC4CCCC4)nc(Cl)nc32)[C@H](O)[C@@H]1O)OCOC(=O)OC(C)C [W] |
| < 6.00 | CC(C)OC(=O)OCOP(=O)(O)CC(=O)N(C)C[C@H]1O[C@@H](n2cnc3c(NC4CCCC4)nc(Cl)nc32)[C@H](O)[C@@H]1O [X] |
| < 6.00 | CCOC(=O)OCOP(=O)(CC(=O)N(C)C[C@H]1O[C@@H](n2cnc3c(NC4CCCC4)nc(Cl)nc32)[C@H](O)[C@@H]1O)OCOC(=O)OCC [Y] |
| < 6.00 | CCOC(=O)OCOP(=O)(O)CC(=O)N(C)C[C@H]1O[C@@H](n2cnc3c(NC4CCCC4)nc(Cl)nc32)[C@H](O)[C@@H]1O [Z] |

From patent US11267845B2, “Inhibitors of CD73-mediated immunosuppression” (ARCUS BIOSCIENCES, INC., priority 2016, dated 2022)
